In article PMC10999543, “Identification of kinase modulators as host-directed therapeutics against intracellular methicillin-resistant Staphylococcus aureus” (Frontiers in Cellular and Infection Microbiology, 2024):
Like-named read-outs stand apart in the source and are kept apart here.

Columns and labels:
intracellular MRSA = format: cell-based, Staphylococcus aureus; settings: for %GFP+ rep 1 / z-scoreMRSA+ rep 1: replicate 1; for %GFP+ rep 2 / z-scoreMRSA+ rep 2: replicate 2; for %GFP+ rep 3 / z-scoreMRSA+ rep 3: replicate 3; for z-scoreMRSA+ mean: mean of 3 replicates
Method in brief: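 HeLa cells infected with GFP-MRSA (MOI ~6.8), gentamicin-cleared, then incubated overnight at 37°C with inhibitors plus 5 µg/ml gentamicin; DMSO as negative control, triplicates. Flow cytometry gave % GFP-positive cells and cell count (viability surrogate); hits by plate z-score (MRSA ≤ -2, HeLa count ≥ -3).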

HeLa cells = assay: Compound screen by flow cytometry: HeLa cell count as surrogate readout of cell viability (z-scoreHeLa); format: cell-based, human
Method in brief: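 HeLa cells were infected with GFP-MRSA (mean MOI 6.8 ± 4.6) for 1 h, and extracellular bacteria were killed with 30 µg/ml gentamicin. Cells were then incubated overnight with kinase inhibitors in 5 µg/ml gentamicin, in triplicate against DMSO controls. Flow-cytometric cell count served as a viability surrogate, expressed as a plate z-score.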

[1] = test system: intracellular MRSA in HeLa cells; assay: Gentamicin protection assay with CFU count in MRSA-infected HeLa cells; format: cell-based, Staphylococcus aureus; settings: tested at different concentrations, Figure 4K
Procedure: The cells were resuspended in cell culture medium without antibiotics, seeded with 10,000 cells/well into Costar flat-bottom 96-well plates (Corning, Amsterdam, the Netherlands), and were incubated overnight at 37°C/5% CO2. The next day, the bacteria were centrifuged at ≥1800 g for 15 min and resuspended in cold PBS + 5 mM ethylenediaminetetraacetic acid (EDTA). The number of CFUs present in the bacterial suspension was estimated from the optical density at 600 nm (OD600) by assuming 8x10^8 CFUs to be present in a bacterial suspension with OD600 = 1, based on prior titrations. The bacterial suspension was diluted in cell culture medium without antibiotics and added to the cells. Accuracy of the multiplicity of infection (MOI) was validated by plating serial dilutions of the MRSA inoculums on Difco TS agar plates (BD Biosciences). The calculated mean MOI throughout all experiments was 6.8 ± 4.6 (mean ± SD). Infected cells were centrifuged for 3 min at 150 g and incubated for 1 hour at 37°C/5% CO2. Next, the cells were incubated with fresh cell culture medium supplemented with 30 µg/ml gentamicin sulphate (Lonza BioWhittaker, Basel, Switzerland) for 15 min at 37°C/5% CO2 to kill residual extracellular bacteria. Infected cells were incubated overnight at 37°C/5% CO2 in cell culture medium in the presence of kinase inhibitors and 5 µg/ml gentamicin sulphate-containing medium to prevent the growth of extracellular bacteria. The solvent of the compounds, DMSO, was used at equal % v/v as a negative control. For the screen, each compound was tested in triplicate, on separate cell culture plates, resulting in triplicate values for each kinase inhibitor.
Infected cells were lysed in sterile water + 0.05% UltraPure SDS solution (Invitrogen, ThermoFisher Scientific) to release intracellular bacteria. Bacterial suspensions and lysates of cells infected with MRSA were 5-fold serially diluted and 10-μl drops were plated on square TS agar plates. The plates were left to dry and incubated overnight at 37°C/5% CO2.

[2] = PKIS compound screen raw data, MRSA-infected HeLa cells
[3] = Yes/No: effect without cell death
[4] = compound screen, MRSA-infected HeLa cells
[5] = compound screen, HeLa cell count, mean of 3 replicates
[6] = compound screen, HeLa cell count, replicate 1
[7] = compound screen, HeLa cell count, replicate 2
[8] = compound screen, HeLa cell count, replicate 3
[9] = PKIS compounds raw data, MRSA-infected HeLa cells
[10] = PKIS compound screen, Yes/No call (effect without cell death)
[11] = PKIS compound screen, MRSA-infected HeLa cells

Compound	%GFP+ rep 1 (intracellular MRSA; [2]) [%]	%GFP+ rep 2 (intracellular MRSA; [2]) [%]	%GFP+ rep 3 (intracellular MRSA; [2]) [%]	effect (intracellular MRSA; Yes/No call from z-scoreMRSA+)	hit (intracellular MRSA; [3])	z-scoreMRSA+ mean (intracellular MRSA; [4])	z-scoreMRSA+ rep 1 (intracellular MRSA; [4])	z-scoreMRSA+ rep 2 (intracellular MRSA; [4])	z-scoreMRSA+ rep 3 (intracellular MRSA; [4])	cell death (HeLa cells; Yes/No call from z-scoreHeLa)	z-scoreHeLa mean (HeLa cells; [5])	z-scoreHeLa rep 1 (HeLa cells; [6])	z-scoreHeLa rep 2 (HeLa cells; [7])	z-scoreHeLa rep 3 (HeLa cells; [8])	%GFP+ rep 1 (intracellular MRSA; [9]) [%]	%GFP+ rep 2 (intracellular MRSA; [9]) [%]	%GFP+ rep 3 (intracellular MRSA; [9]) [%]	hit (intracellular MRSA; [10])	cell count rep 1 (HeLa cells)	cell count rep 2 (HeLa cells)	further results
O=C(Nc1n[nH]c2cc(-c3cccc(F)c3F)ccc12)C1CC1 [SB-733894]	21.8	21.7	19.3	No	No	-0.63	-0.81	-0.22	-0.87	No	0.0318	0.20	0.11	-0.22	–	–	–	–	–	–	cell count rep 1 (HeLa cells; PKIS compound screen raw data, HeLa cell count, replicate 1): 4632; cell count rep 2 (HeLa cells; PKIS compound screen raw data, HeLa cell count, replicate 2): 4442; cell count rep 3 (HeLa cells; PKIS compound screen raw data, HeLa cell count, replicate 3): 4898
Nc1nonc1-c1nc2cnccc2n1C1CCCCC1 [SB-734117]	–	–	–	No	No	-0.0455	0.49	0.17	-0.79	No	-1.28	-1.90	-1.03	-0.92	14.7	14.0	13.2	–	–	–	cell count rep 1 (HeLa cells; PKIS compounds raw data, replicate 1, HeLa cell count): 2677; cell count rep 2 (HeLa cells; PKIS compounds raw data, replicate 2, HeLa cell count): 2902; cell count rep 3 (HeLa cells; PKIS compounds raw data, replicate 3, HeLa cell count): 5031
CNC(=O)CN1CCC(Oc2cc3c(Nc4cccc(Cl)c4F)ncnc3cc2OC)CC1 [sapitinib, reference compound]	–	–	–	–	–	–	–	–	–	–	–	–	–	–	–	–	–	–	–	–	effect on bacterial burden of MRSA-infected HeLa cells [1]: unable to reduce the bacterial burden
SB-675259-M	–	–	–	–	–	–	–	–	–	–	–	–	–	–	13.1	14.6	11.4	No	2153	1700	effect (intracellular MRSA; PKIS compound screen, Yes/No call): No; z-scoreMRSA+ mean (intracellular MRSA; PKIS compound screen): -0.33; z-scoreMRSA+ rep 1 (intracellular MRSA; PKIS compound screen): -0.0227; z-scoreMRSA+ rep 2 (intracellular MRSA; PKIS compound screen): 0.37; z-scoreMRSA+ rep 3 (intracellular MRSA; PKIS compound screen): -1.33; cell count rep 3 (HeLa cells): 5596; cell death (HeLa cells): No; z-scoreHeLa mean (HeLa cells): -1.66; z-scoreHeLa rep 1 (HeLa cells): -2.37; z-scoreHeLa rep 2 (HeLa cells): -1.94; z-scoreHeLa rep 3 (HeLa cells): -0.65
SB-739245-AC	12.9	15.6	16.3	–	–	–	–	–	–	–	–	–	–	–	–	–	–	No	23497	32010	z-scoreMRSA+ mean (intracellular MRSA; [11]): -1.17; z-scoreMRSA+ rep 1 (intracellular MRSA; [11]): -1.57; z-scoreMRSA+ rep 2 (intracellular MRSA; [11]): -0.88; z-scoreMRSA+ rep 3 (intracellular MRSA; [11]): -1.06; effect (intracellular MRSA; PKIS compound screen, Yes/No call on z-scoreMRSA+): No; cell count rep 3 (HeLa cells): 40050; cell death (HeLa cells): No; z-scoreHeLa mean (HeLa cells): -0.0274; z-scoreHeLa rep 1 (HeLa cells): 0.51; z-scoreHeLa rep 2 (HeLa cells): -0.52; z-scoreHeLa rep 3 (HeLa cells): -0.0761
